# According to patent publication US20240002437A1, “COMPOSITIONS AND METHODS OF TREATING INFLAMMATORY LUNG DISEASES” (priority 2020, published 2024):
# Assays:
# Assay type in all cases: cell-based, ovine
# [1] = system: eNOS phosphorylation at T495; assay: Western blot of pT495-eNOS in PAEC
# Experimental: (§1) Primary cultures of ovine pulmonary arterial endothelial cells (PAEC) were isolated as described previously (L. K. Kelly, Am J Physiol Lung Cell Mol Physiol, 286(5), L984-91 (2004)). Briefly, cells were maintained in Dulbecco's modified Eagle medium (DMEM) supplemented with 10% fetal calf serum (Hyclone, Logan, UT), antibiotics/antimycotic (500 IU Penicillin, 500 μg/ml Streptomycin, 1.25 μg/ml Amphotericin B; MediaTech, Herndon, VA) at 37° C. in a humidified atmosphere with 5% CO2 and 95% air. Cells were used for experiments between passages 9-14, seeded at ˜50% confluence, and utilized when fully confluent.
# Protein extracts were prepared using lysis buffer (50 mM Tris-HCl, pH 7.6, 0.5% Triton X-100, 20% glycerol) containing HALT™ protease inhibitor cocktail (Pierce Laboratories, Rockford, IL). The extracts were then subjected to centrifugation (15,000 g for 15 min at 4° C.). Supernatant fractions were assayed for protein concentration using the Bradford reagent (Bio-Rad, Richmond, CA) then used for Western blot analyses. Protein extracts (25-50 μg) were separated on Long-Life 4-20% Tris-SDS-Hepes gels and electrophoretically transferred to IMMUNO-BLOT™ PVDF membrane (Bio-Rad Laboratories, Hercules, CA) Immunoblotting was then carried out using the appropriate antibodies in Tris-base buffered saline with 0.1% Tween 20 and 5% nonfat milk. After washing, the membranes were probed with horseradish peroxidase-conjugated goat antiserum to rabbit or mouse. Reactive bands were visualized using chemiluminescence (Super Signal West Femto; Pierce, Rockford, IL) on a LI-COR Odyssey image station (Lincoln, NE). Bands were quantified using LI-COR Image Station software. Loading was normalized by reprobing the membranes with an antibody specific to β-actin.
# [2] = system: NOS-derived superoxide; assay: NOS-derived superoxide by EPR (eNOS uncoupling) in PAEC
# Experimental: as §1
# Superoxide levels were estimated by electron paramagnetic resonance (EPR) assay using the spin-trap compound 1-hydroxy-3-methoxycarbonyl-2,2,5,5-tetramethylpyrrolidine HCl (CMH, Axxora) as described previously. Superoxide in PAEC was trapped by incubating PAEC with 20 μl of CMH stock solution (20 mg/ml) for 1 h, followed by trypsinization and centrifugation at 500 g. The cell pellet was suspended in 35 μl DPBS and loaded into a capillary tube which was then analyzed with a MiniScope MS200 EPR machine (Magnettech, Berlin, Germany). Pre-incubating cells or tissue with 100 μM ethylisothiourea (ETU, Sigma-Aldrich) for 30 min followed by incubation with CMH measured NOS-derived superoxide. EPR spectra were analyzed using ANALYSIS v.2.02 software (Magnettech). Differences between levels of samples incubated in the presence and absence of ETU were used to determine NOS-dependent superoxide generation.
# [3] = system: mitochondrial redistribution of eNOS; assay: Immunofluorescent microscopy of eNOS mitochondrial redistribution in PAEC
# Experimental: as §1
# PAEC were grown on cover glass for three days after reaching 100% confluence, and fixed with 4% paraformaldehyde (Thermo Fisher Scientific) for 30 min, permeabilized with 100% cold methanol at −20° C. for 5 min Cell then blocked with 1% BSA for 1 hour, and later incubated with first antibody overnight at 4° C. then secondary antibody at room temperature for 1 hour. Finally, cells were mounted on microscope slides using ProLong Glass Antifade Mountant, (Invitrogen, Carlsbad, CA, Cat #P36980). […] The images were analyzed with ImagePro Plus 7.0 (W. Casavan, Microscopy Today, 11(6), 48-50 (2003)) or ImageJ software to evaluate the colocalization of fluorescent.
# [4] = system: PAEC monolayers; assay: Trans endothelial resistance (TER) of PAEC monolayers
# Experimental: as §1
# Transendothelial Electrical Resistance (TER) was determined to characterize the integrity of PAEC monolayers using an electrical cell-substrate impedance sensing (ECIS) instrument ECIS Z-Theta (Applied BioPhysics, Troy, NY) as previously described (J. N. Gonzales, Vascul Pharmacol, 62(2), 63-71 (2014); S. Aggarwal, American Journal of Respiratory Cell and Molecular Biology, 50(3), 614-25 (2014)). The cells were plated in 8-well ECIS arrays (Applied BioPhysics) in complete cell culture medium (DMEM supplemented with 10% FBS) and grown to 100% confluency for 2 days. […] After a baseline measurement, the EC were treated with 4αPDD, PMA, the eNOS pT495 decoy peptide, or vehicle at the indicated concentrations, and changes in TER were recorded in real time.
# [5] = system: PKC; assay: PKC activity, dot-blot of PKC-phosphorylated proteins; conditions: PAEC; 4αPDD 10 μM, 2, 4 and 6 hours
# Experimental: as §1
# Activation of PKC in control and 4αPDD-treated EC was evaluated using dot-blot method and antibodies specific to PKC-phosphorylated proteins. The cell lysates were transferred on nitrocellulose membrane using Bio-Dot Microfiltration apparatus (Bio-Rad) according to Instruction Manual. To detect and evaluate levels of PKC-phosphorylated proteins, Phospho-(Ser) PKC Substrate rabbit polyclonal antibody (Cell Signaling) was used. After visualization of PKC-phosphorylated proteins, the membrane was stripped and re-probed with β-actin antibody for normalization.
Compound,"PMA-mediated increase in pT495-eNOS ([1]; d-peptide 1 μg/ml, PMA 100 nm, 2 h)",eNOS uncoupling (NOS-derived superoxide levels) ([2]; d-peptide and PMA),PMA-induced mitochondrial redistribution of eNOS ([3]; d-peptide and PMA),barrier disruption induced by 4αPDD (normalized TER) ([4]; d-peptide plus 4αPDD),eNOS phosphorylation at T495 ([1]; 4αPDD),NOS derived superoxide generation (eNOS uncoupling) ([2]; 4αPDD),mitochondrial redistribution of eNOS ([3]; 4αPDD),TER (barrier integrity) ([4]; 4αPDD 0-15 μM),PKC activity [5]
HRKKRRQRRITRKKTFKEVA [d-peptide],attenuated the PMA-mediated increase in pT495-eNOS,reduced eNOS uncoupling,attenuated,reduced,–,–,–,–,–
"CCCCCCCCCC(=O)O[C@@H]1[C@@H](C)[C@@]2(O)[C@@H](C=C(CO)C[C@@]3(O)C(=O)C(C)=C[C@@H]23)[C@@H]2C(C)(C)[C@]12OC(=O)CCCCCCCCC [4αPDD, 4α-Phorbol-12,13 didecanoate]",–,–,–,–,increase in eNOS phosphorylation at T495,increases in NOS derived superoxide generation,induces the mitochondrial redistribution of eNOS,dose-dependent decrease in TER,increases PKC activity
